Measurements: patent US5384113A, “Stabilizers to prevent autoradiolysis of radiolabeled peptides and proteins” (priority 1993, dated 1995)

Assays:
[1] = Stability (radiochemical purity) of 111In DTPA-octreotide solution at room temperature by reverse-phase HPLC with radiometric detector; format: physicochemical; settings: alone or in combination with other stabilizers; summary of Examples 1-7
Procedure: (§1) To a lyophilized kit containing 10 μg DTPA-octreotide (N-[3,6,9,9-tetrakis(carboxymethyl)-3,6,9-triazanonanoyl]-D-phenylalanyl-L -hemicystyl-L-phenylalanyl-D-tryptophyl-L-lysyl-L-threonyl-L-hemicydyyl-L-t hreoninol cyclic (2→7) disulfide, MW=1394.60 gm/mol), 5.6 mg trisodium citrate dihydrate, and 0.4 mg citric acid monohydrate was added 1.0 ml of 0.02M HCl containing 4.70 mCi of ^111 In. The pH of the solution was 4.5. The solution was kept at room temperature and monitored for the amount of ^111 In DTPA-octreotide using reverse-phase HPLC and a Beckman 170 radiometric detector. […]
as §1, with “dihydrate,” for “dihydrate, and”, “monohydrate, and 1.0 mg inositol” for “monohydrate”, “6.04” for “4.70”, “The pH of the solution was 4.5.” left out

[2] = system: somatostatin receptors; settings: variety of human tumors; cited from earlier work

SMILES	Prevention of radiolysis of radiolabeled peptides (stabilizer effect) [1]	Binding affinity to somatostatin receptors [2]
O=C(O)c1cc(O)ccc1O [gentisic acid, 2,5-dihydroxybenzoic acid]	very effective at preventing radiolysis	
C[C@@H](O)[C@@H]1NC(=O)[C@H](CCCCN)NC(=O)[C@@H](Cc2c[nH]c3ccccc23)NC(=O)[C@H](Cc2ccccc2)NC(=O)[C@@H](NC(=O)[C@H](N)Cc2ccccc2)CSSC[C@@H](C(=O)N[C@H](CO)[C@@H](C)O)NC1=O [octreotide]		very high binding affinity
